# In patent US11339165B2, “Pyrazolopyrimidines having activity against the respiratory syncytial virus (RSV)” (priority 2017, dated 2022):
# How the values were obtained:
# in vitro = conditions: human, TOX HELA CC50 (μM)
# rgRSV224 virus = test: Antiviral activity: rgRSV224 (GFP) replication in HeLa cells; format: cell-based, respiratory syncytial virus (RSV); conditions: human respiratory syncytial virus, HeLa, 72 h, read-out: RSV HELA EC50 (μM), rgRSV224 virus (MOI=1), HeLa cells, GFP expression three days post-virus exposure
SMILES,CC50 at 3 days (in vitro),EC50 (rgRSV224 virus)
"C[C@@H]1c2ccccc2CCN1C(=O)c1cc(C2CC2)n2nc(-c3ccc(N4CC(CC(N)=O)C4)nc3F)cc2n1 [Compound 92, 2-[1-(5-{7-Cyclopropyl-5-[(1R)-1-methyl-1,2,3,4-tetrahydroisoquinoline-2-carbonyl]-pyrazolo[1,5-a]pyrimidin-2-yl}-6-fluoropyridin-2-yl)azetidin-3-yl]acetamide]",41.5 µM,0.071 µM
"COC(=O)N[C@@H]1CCN(c2ccc(-c3cc4nc(C(=O)N5CCc6ccccc6[C@H]5C)cc(C5CC5)n4n3)c(F)c2)C1 [Compound 9, Methyl N-[(3R)-1-[4-{7-cyclopropyl-5-[(1R)-1-methyl-1,2,3,4-tetrahydroisoquinoline-2-carbonyl]pyrazolo[1,5-a]pyrimidin-2-yl}-3-fluorophenyl)pyrrolidin-3-yl]carbamate]",> 100 µM,0.108 µM
"C[C@@H]1c2ccccc2CCN1C(=O)c1cc(C2CC2)n2nc(-c3ccc(N4CC[C@@H](c5nnn[nH]5)C4)cc3F)cc2n1 [Compound 2, (1R)-2-(7-Cyclopropyl-2-{2-fluoro-4-[(3R)-3-(1H-1,2,3,4-tetrazol-5-yl)pyrrolidin-1-yl]phenyl}pyrazolo[1,5-a]pyrimidine-5-carbonyl)-1-methyl-1,2,3,4-tetrahydroisoquinoline]",38.7 µM,0.056 µM
"C[C@@H]1c2ccccc2CCN1C(=O)c1cc(C2CC2)n2nc(-c3ccc(N4CCC(CC(N)=O)CC4)cc3F)cc2n1 [Compound 70, 2-[1-(4-{7-Cyclopropyl-5-[(1R)-1-methyl-1,2,3,4-tetrahydroisoquinoline-2-carbonyl]-pyrazolo[1,5-a]pyrimidin-2-yl}-3-fluorophenyl)piperidin-4-yl] acetamide]",28.2 µM,0.104 µM
"C[C@@H]1c2ccccc2CCN1C(=O)c1cc(C2CC2)n2nc(-c3ccc(N4CC[C@H](C(C)(C)C(N)=O)C4)cc3F)cc2n1 (single isomer, unassigned) [Compound 27, 2-[(3*R)-1-(4-{7-Cyclopropyl-5-[(1R)-1-methyl-1,2,3,4-tetrahydroisoquinoline-2-carbonyl]pyrazolo[1,5-a]pyrimidin-2-yl}-3-fluorophenyl)pyrrolidin-3-yl]-2-methylpropanamide]",34.4 µM,0.089 µM
"C[C@@H]1c2ccccc2CCN1C(=O)c1cc(-c2ccccc2)n2nc(-c3ccc(N4CC[C@H](C(N)=O)C4)cc3F)cc2n1 [Compound 56, (3S)-1-(3-Fluoro-4-{5-[(1R)-1-methyl-1,2,3,4-tetrahydroisoquinoline-2-carbonyl]-7-phenylpyrazolo[1,5-a]pyrimidin-2-yl}phenyl)pyrrolidine-3-carboxamide]",58.9 µM,0.032 µM
"C[C@@H]1c2ccccc2CCN1C(=O)c1cc(C2CC2)n2nc(-c3ccc(N4CC[C@H](NCC(F)(F)F)C4)cc3F)cc2n1 [Compound 94, (7-cyclopropyl-2-(2-fluoro-4-((S)-3-((2,2,2-trifluoroethyl)amino)pyrrolidin-1-yl)phenyl)pyrazolo[1,5-a]pyrimidin-5-yl)((R)-1-methyl-3,4-dihydroisoquinolin-2(1H)-yl)methanone]",> 100 µM,0.19 µM
"C[C@@H]1c2ccccc2CCN1C(=O)c1cc(C2CC2)n2nc(-c3ccc(N4CC[C@H](S(C)(=O)=O)C4)cc3F)cc2n1 [Compound 18, (1R)-2-(7-Cyclopropyl-2-{2-fluoro-4-[(3S)-3-methanesulfonylpyrrolidin-1-yl]phenyl}-pyrazolo[1,5-a]pyrimidine-5-carbonyl)-1-methyl-1,2,3,4-tetrahydroisoquinoline]",> 100 µM,0.044 µM
"Cc1cc(N2CC[C@H](C(N)=O)C2)cc(F)c1-c1cc2nc(C(=O)N3CCc4ccccc4[C@H]3C)cc(C3CC3)n2n1 [Compound 89, (3S)-1-(4-{7-Cyclopropyl-5-[(1R)-1-methyl-1,2,3,4-tetrahydroisoquinoline-2-carbonyl]pyrazolo[1,5-a]pyrimidin-2-yl}-3-fluoro-5-methylphenyl)pyrrolidine-3-carboxamide]",33.4 µM,0.165 µM
"C[C@@H]1c2ccccc2CCN1C(=O)c1cc(C2CC2)n2nc(-c3ccc(N4CC[C@H](NS(C)(=O)=O)C4)cc3F)cc2n1 [Compound 12, N-[(3S)-1-(4-{7-Cyclopropyl-5-[(1R)-1-methyl-1,2,3,4-tetrahydroisoquinoline-2-carbonyl]pyrazolo[1,5-a]pyrimidin-2-yl}-3-fluorophenyl)pyrrolidin-3-yl]methane-sulfonamide]",> 100 µM,0.041 µM
"C[C@@H]1c2ccccc2CCN1C(=O)c1cc(C2CC2)n2nc(-c3ccc(N4CC[C@@H](OC(N)=O)C4)nc3F)cc2n1 [Compound 85, (3R)-1-(5-{7-Cyclopropyl-5-[(1R)-1-methyl-1,2,3,4-tetrahydroisoquinoline-2-carbonyl]-pyrazolo[1,5-a]pyrimidin-2-yl}-6-fluoropyridin-2-yl)pyrrolidin-3-yl carbamate]",> 100 µM,0.152 µM
"C[C@@H]1c2ccccc2CCN1C(=O)c1cc(C2CC2)n2nc(-c3ccc(N4CC[C@](C)(CC(N)=O)C4)cc3F)cc2n1 (single isomer, unassigned) [Compound 23, 2-[(3*R)-1-(4-{7-Cyclopropyl-5-[(1R)-1-methyl-1,2,3,4-tetrahydroisoquinoline-2-carbonyl]pyrazolo[1,5-a]pyrimidin-2-yl}-3-fluorophenyl)-3-methylpyrrolidin-3-yl]acetamide]",30.3 µM,0.032 µM
"C[C@@H]1c2ccccc2CCN1C(=O)c1cc(C2CC2)n2nc(-c3ccc(N4C[C@@H](O)[C@@H](F)C4)cc3F)cc2n1 (relative stereo) [Compound 107, (7-cyclopropyl-2-(2-fluoro-4-(cis-3-fluoro-4-hydroxypyrrolidin-1-yl)phenyl)pyrazolo[1,5-a]pyrimidin-5-yl)((R)-1-methyl-3,4-dihydroisoquinolin-2(1H)-yl)methanone]",21.2 µM,0.017 µM
"C[C@@H]1c2ccccc2CCN1C(=O)c1cc(C2CC2)n2nc(-c3ccc(N4CC[C@H](C(=O)NC#N)C4)cc3F)cc2n1 [Compound 39, (3S)—N-Cyano-1-(4-{7-cyclopropyl-5-[(1R)-1-methyl-1,2,3,4-tetrahydroisoquinoline-2-carbonyl]pyrazolo[1,5-a]pyrimidin-2-yl}-3-fluorophenyl)pyrrolidine-3-carboxamide]",53.1 µM,0.291 µM
"C[C@@H]1c2ccccc2CCN1C(=O)c1cc(C2CC2)n2nc(-c3ccc(N4CC[C@H](C(N)=S)C4)cc3F)cc2n1 [Compound 101, (S)-1-(4-(7-cyclopropyl-5-((R)-1-methyl-1,2,3,4-tetrahydroisoquinoline-2-carbonyl)pyrazolo[1,5-a]pyrimidin-2-yl)-3-fluorophenyl)pyrrolidine-3-carbothioamide]",45.4 µM,0.058 µM
C[C@@H]1c2ccccc2CCN1C(=O)c1cc(C2CC2)n2nc(-c3ccc(N4CCC5(C4)CS(=O)(=O)C5)cc3F)cc2n1 [Compound 6],> 100 µM,0.098 µM
"C[C@@H]1c2ccccc2CCN1C(=O)c1cc(C2CC2)n2nc(-c3ccc(N4CC[C@H](OC(N)=O)C4)cc3F)cc2n1 [Compound 78, (3S)-1-(4-{7-Cyclopropyl-5-[(1R)-1-methyl-1,2,3,4-tetrahydroisoquinoline-2-carbonyl]pyrazolo[1,5-a]pyrimidin-2-yl}-3-fluorophenyl)pyrrolidin-3-yl carbamate]",47.3 µM,0.055 µM
"C[C@@H]1c2ccccc2CCN1C(=O)c1cc(C2CC2)n2nc(-c3ccc(N4C[C@H](C)[C@@H](O)C4)cc3F)cc2n1 (stereo in doubt) [Compound 99, (7-cyclopropyl-2-(2-fluoro-4-((trans)-3-hydroxy-4-methylpyrrolidin-1-yl)phenyl)pyrazolo[1,5-a]pyrimidin-5-yl)((R)-1-methyl-3,4-dihydroisoquinolin-2(1H)-yl)methanone]",> 100 µM,0.092 µM
"COc1cc(N2CC[C@H](C(N)=O)C2)nc(F)c1-c1cc2nc(C(=O)N3CCc4ccccc4[C@H]3C)cc(C3CC3)n2n1 [Compound 86, (3S)-1-(5-{7-Cyclopropyl-5-[(1R)-1-methyl-1,2,3,4-tetrahydroisoquinoline-2-carbonyl]-pyrazolo[1,5-a]pyrimidin-2-yl}-6-fluoro-4-methoxypyridin-2-yl)pyrrolidine-3-carboxamide]",49.5 µM,0.161 µM
"C[C@@H]1c2ccsc2CCN1C(=O)c1cc(C2CC2)n2nc(-c3ccc(N4CC[C@H](C(C)(C)C(N)=O)C4)cc3F)cc2n1 (single isomer, unassigned) [Compound 29, 2-[(3*R)-1-(4-{7-Cyclopropyl-5-[(4*R)-4-methyl-4,5,6,7-tetrahydro-thieno[3,2-c]pyridine-5-carbonyl]pyrazolo[1,5-a]pyrimidin-2-yl}-3-fluorophenyl)pyrrolidin-3-yl]-2-methyl-propanamide]",43.7 µM,0.045 µM
"C[C@@H]1c2ccccc2CCN1C(=O)c1cc(C2CC2)n2nc(-c3ccc(N4CC[C@H](O)C4)cc3F)cc2n1 [Compound 14, (3S)-1-(4-{7-Cyclopropyl-5-[(1R)-1-methyl-1,2,3,4-tetrahydroisoquinoline-2-carbonyl]-pyrazolo[1,5-a]pyrimidin-2-yl}-3-fluorophenyl)pyrrolidin-3-ol]",81.2 µM,0.039 µM
"C[C@@H]1c2ccccc2CCN1C(=O)c1cc(-c2ccc(Cl)cc2)n2nc(-c3ccc(N4CC[C@H](C(N)=O)C4)cc3F)cc2n1 [Compound 59, (3S)-1-{4-[7-(4-Chlorophenyl)-5-[(1R)-1-methyl-1,2,3,4-tetrahydroisoquinoline-2-carbonyl]pyrazolo[1,5-a]pyrimidin-2-yl]-3-fluorophenyl}pyrrolidine-3-carboxamide]",,0.047 µM
